Measurements reported in ChEMBL document CHEMBL3431459, “Roche carnitine palmitoyltransferase modulator screening data (supplementary data associated with the publication CHEMBL2216752)”.
≈ marks a conversion by molar mass, not a printed value.

Columns and labels:
[1] = molecular target: T1, Carnitine O-palmitoyltransferase 1, muscle isoform (Homo sapiens, UniProt Q92523); test: SUPPLEMENTARY: Inhibition of Carnitine palmitoyltransferase 1, muscle isoform; set-up: species or system Muscle tissue
T1 sequence (Q92523 whole entry): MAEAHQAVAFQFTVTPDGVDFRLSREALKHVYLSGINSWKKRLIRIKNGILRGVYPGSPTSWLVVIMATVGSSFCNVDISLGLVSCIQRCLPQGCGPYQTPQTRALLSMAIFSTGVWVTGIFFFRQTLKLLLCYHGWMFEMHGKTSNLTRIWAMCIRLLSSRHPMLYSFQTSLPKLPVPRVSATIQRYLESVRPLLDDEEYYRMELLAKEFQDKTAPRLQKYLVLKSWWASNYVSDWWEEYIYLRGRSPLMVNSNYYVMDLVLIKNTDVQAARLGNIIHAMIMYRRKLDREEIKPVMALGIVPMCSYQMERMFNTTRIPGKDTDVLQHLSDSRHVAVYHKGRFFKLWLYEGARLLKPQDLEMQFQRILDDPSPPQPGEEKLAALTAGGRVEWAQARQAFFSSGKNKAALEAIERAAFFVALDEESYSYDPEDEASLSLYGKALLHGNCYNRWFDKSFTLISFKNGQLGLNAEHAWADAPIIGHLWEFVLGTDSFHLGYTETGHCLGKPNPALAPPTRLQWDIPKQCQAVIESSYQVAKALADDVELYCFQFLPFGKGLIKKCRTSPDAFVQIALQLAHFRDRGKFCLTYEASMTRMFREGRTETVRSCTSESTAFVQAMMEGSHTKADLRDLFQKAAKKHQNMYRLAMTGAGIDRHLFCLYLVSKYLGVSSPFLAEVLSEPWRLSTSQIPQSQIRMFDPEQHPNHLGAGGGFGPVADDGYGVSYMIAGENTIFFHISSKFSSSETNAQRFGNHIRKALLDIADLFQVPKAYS

[2] = molecular target: T2, Carnitine O-palmitoyltransferase 2, mitochondrial (Homo sapiens, UniProt P23786); test: (§1) SUPPLEMENTARY: Inhibition of Carnitine palmitoyltransferase 2
T2 sequence (P23786 whole entry): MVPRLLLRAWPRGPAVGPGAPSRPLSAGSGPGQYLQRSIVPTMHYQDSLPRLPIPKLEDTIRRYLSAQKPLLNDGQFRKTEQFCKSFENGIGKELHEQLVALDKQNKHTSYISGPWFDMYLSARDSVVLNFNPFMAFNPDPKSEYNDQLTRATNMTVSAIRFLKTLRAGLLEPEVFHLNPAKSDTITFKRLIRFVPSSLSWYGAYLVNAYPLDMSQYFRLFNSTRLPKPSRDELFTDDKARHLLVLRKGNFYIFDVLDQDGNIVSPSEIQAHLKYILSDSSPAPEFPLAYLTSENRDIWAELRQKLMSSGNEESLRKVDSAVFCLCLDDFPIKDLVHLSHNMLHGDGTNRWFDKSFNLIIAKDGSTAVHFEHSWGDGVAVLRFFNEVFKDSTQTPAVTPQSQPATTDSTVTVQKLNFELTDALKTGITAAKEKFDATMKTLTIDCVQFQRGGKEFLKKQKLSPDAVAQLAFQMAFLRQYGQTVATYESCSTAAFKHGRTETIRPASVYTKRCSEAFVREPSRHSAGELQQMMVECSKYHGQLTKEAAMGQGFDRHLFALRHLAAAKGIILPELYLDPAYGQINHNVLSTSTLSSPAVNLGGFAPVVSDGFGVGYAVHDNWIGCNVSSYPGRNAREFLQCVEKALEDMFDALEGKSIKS

[3] = molecular target: T3, Carnitine O-palmitoyltransferase 2, mitochondrial (Rattus norvegicus, UniProt P18886); test: as §1
T3 sequence (P18886 whole entry): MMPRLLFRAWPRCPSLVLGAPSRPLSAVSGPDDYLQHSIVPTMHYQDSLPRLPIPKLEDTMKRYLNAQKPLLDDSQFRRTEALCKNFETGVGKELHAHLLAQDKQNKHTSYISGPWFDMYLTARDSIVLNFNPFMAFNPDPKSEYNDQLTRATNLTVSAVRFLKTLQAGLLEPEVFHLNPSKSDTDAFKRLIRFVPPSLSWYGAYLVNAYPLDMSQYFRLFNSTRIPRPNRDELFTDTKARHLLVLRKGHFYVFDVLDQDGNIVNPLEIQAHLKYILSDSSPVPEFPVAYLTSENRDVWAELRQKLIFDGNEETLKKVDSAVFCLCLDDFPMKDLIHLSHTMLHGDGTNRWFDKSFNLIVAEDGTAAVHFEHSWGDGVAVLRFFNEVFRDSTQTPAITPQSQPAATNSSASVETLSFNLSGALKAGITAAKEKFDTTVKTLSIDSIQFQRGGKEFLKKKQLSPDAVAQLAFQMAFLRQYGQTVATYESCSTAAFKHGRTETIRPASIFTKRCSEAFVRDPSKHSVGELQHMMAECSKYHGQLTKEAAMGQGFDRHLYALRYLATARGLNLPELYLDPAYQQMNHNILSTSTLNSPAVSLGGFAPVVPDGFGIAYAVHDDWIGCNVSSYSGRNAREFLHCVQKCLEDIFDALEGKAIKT

[4] = molecular target: T4, Carnitine O-palmitoyltransferase 1, liver isoform (Homo sapiens, UniProt P50416); test: (§2) SUPPLEMENTARY: Inhibition of Carnitine palmitoyltransferase 1, liver isoform
T4 sequence (P50416 whole entry): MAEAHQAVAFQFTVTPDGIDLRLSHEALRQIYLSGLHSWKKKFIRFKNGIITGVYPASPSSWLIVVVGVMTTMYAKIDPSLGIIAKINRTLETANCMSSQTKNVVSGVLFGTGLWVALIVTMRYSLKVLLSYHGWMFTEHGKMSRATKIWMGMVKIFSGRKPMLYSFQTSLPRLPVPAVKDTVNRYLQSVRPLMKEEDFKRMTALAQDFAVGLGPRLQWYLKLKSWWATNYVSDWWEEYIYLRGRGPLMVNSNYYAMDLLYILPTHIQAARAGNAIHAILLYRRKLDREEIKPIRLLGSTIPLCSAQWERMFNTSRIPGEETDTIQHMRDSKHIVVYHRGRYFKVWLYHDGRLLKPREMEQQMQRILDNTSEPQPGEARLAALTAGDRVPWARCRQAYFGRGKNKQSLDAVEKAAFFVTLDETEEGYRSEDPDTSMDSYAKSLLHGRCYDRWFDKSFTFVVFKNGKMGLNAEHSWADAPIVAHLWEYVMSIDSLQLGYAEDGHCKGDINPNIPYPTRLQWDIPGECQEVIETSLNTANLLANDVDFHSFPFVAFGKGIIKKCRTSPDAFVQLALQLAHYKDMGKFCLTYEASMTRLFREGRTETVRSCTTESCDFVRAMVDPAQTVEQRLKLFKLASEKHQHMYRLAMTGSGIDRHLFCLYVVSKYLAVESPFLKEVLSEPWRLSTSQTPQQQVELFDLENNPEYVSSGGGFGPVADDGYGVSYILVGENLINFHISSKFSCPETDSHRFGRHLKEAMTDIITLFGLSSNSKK

[5] = molecular target: T5, Carnitine O-palmitoyltransferase 1, liver isoform (Rattus norvegicus, UniProt P32198); test: as §2
T5 sequence (P32198 whole entry): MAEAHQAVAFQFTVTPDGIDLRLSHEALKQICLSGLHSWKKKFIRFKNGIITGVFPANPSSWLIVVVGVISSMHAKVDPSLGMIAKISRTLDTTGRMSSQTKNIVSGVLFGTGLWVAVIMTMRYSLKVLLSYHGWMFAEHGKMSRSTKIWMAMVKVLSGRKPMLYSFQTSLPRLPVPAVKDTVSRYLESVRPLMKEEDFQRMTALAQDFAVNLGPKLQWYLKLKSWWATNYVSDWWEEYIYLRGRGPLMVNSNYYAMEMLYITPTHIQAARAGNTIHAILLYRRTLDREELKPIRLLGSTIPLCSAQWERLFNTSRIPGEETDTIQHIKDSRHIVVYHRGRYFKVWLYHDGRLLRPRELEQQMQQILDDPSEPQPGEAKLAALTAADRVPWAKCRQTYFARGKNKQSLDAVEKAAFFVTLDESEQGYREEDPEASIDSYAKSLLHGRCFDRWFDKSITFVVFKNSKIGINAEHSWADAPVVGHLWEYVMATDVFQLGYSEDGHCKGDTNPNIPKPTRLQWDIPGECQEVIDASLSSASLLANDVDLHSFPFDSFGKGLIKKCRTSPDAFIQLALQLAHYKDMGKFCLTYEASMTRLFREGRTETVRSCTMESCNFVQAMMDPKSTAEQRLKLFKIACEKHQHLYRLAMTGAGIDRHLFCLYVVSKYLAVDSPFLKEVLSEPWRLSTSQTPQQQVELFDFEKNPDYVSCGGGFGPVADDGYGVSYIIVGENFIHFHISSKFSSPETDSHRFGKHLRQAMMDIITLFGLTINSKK

[6] = SUPPLEMENTARY: Lyophilisation Solubility Assay (LYSA); assay type: physicochemical; settings: read-out: Kinetic_solubility
[7] = SUPPLEMENTARY: Lipophilicity (log D) Determination by high-throughput shake-flask; assay type: physicochemical; settings: octanol/water
[8] = SUPPLEMENTARY: PAMPA permeability assay; assay type: physicochemical; settings: read-out: Permeability

Compound	IC50 [1]	IC50 [2]	IC50 [3]	IC50 [4]	IC50 [5]	solubility kinetic [6]	logD [7]	Papp [8]
COc1ccc(Cl)cc1S(=O)(=O)N1CCc2ccc(C(=O)Nc3ccn(CC(=O)O)n3)cc21	8100 nM	> 100000 nM	> 100000 nM	84.7 nM	99.9 nM	> 526 µg/mL	1.15	0.23 ×10⁻⁶ cm/s
COc1ccc(Cl)cc1S(=O)(=O)N1CCOc2ccc(C(=O)Nc3ccn(CC(=O)O)n3)cc21	9890 nM	> 100000 nM	> 100000 nM	213 nM	171 nM	> 675 µg/mL	1.27	0.09 ×10⁻⁶ cm/s
Cc1cc(C)cc(S(=O)(=O)c2nn(CCC(=O)O)c3ccc(C(=O)Nc4ccccc4)cc23)c1	> 100000 nM	> 100000 nM	> 100000 nM	27 nM	22.2 nM	8 µg/mL (≈ 16.8 µM)	1.94	0.91 ×10⁻⁶ cm/s
Cc1cc(C)cc(S(=O)(=O)c2n[nH]c3ccc(C(=O)Nc4ccc(C(=O)O)cc4)cc23)c1	1250 nM	1360 nM	4340 nM	51.2 nM	26.4 nM	40 µg/mL (≈ 89 µM)	1.89	0.03 ×10⁻⁶ cm/s
Cc1cc(C)cc(S(=O)(=O)c2nn(C)c3ccc(C(=O)Nc4ccc(C(=O)O)cc4)cc23)c1	2570 nM	2460 nM	10000 nM	74.9 nM	27.2 nM	14 µg/mL (≈ 30.2 µM)	2.21	0.76 ×10⁻⁶ cm/s
COc1ccc(Cl)cc1S(=O)(=O)N1CC(C(=O)O)Cc2ccc(C(=O)Nc3ccccc3)cc21 (stereo not given)	5900 nM	> 100000 nM	> 100000 nM	20.8 nM	14 nM	203 µg/mL (≈ 405 µM)	0.31	1.83 ×10⁻⁶ cm/s
Cc1cc(-c2n[nH]c([C@H]3CCCCN3C(=O)COc3ccccc3)n2)n(C)n1	> 100000 nM	> 100000 nM	> 100000 nM	511 nM	555 nM	129 µg/mL (≈ 339 µM)	2.65	5.2 ×10⁻⁶ cm/s
NC(=O)c1ccc(-c2csc([C@H]3CCCCN3C(=O)COc3ccccc3)n2)cc1	> 100000 nM	18900 nM	75200 nM	239 nM	484 nM	43 µg/mL (≈ 102 µM)	2.26	5.48 ×10⁻⁶ cm/s
Cc1sc([C@H]2CCCCN2C(=O)COc2ccccc2)nc1-c1cccc(C(=O)O)c1	30300 nM	53000 nM	> 100000 nM	92.3 nM	118 nM	402 µg/mL (≈ 921 µM)	0.73	6.19 ×10⁻⁶ cm/s
COc1ccc(Cl)cc1S(=O)(=O)N(C)c1cc(C(=O)Nc2ncc(CC(=O)O)s2)cc2c1OCO2	1210 nM	> 100000 nM	> 100000 nM	67.9 nM	38.5 nM	277 µg/mL (≈ 513 µM)	-0.06	2.22 ×10⁻⁶ cm/s
